# System: MV-4-11 cells
# Assay: Gene expression microarray analysis (Affymetrix PrimeView) and GSEA
# Type: cell-based, human
# Set-up: RFU PODN (11730768_x_at) / Fold change /veh PODN (11730768_x_at) / RFU LINC00158 (11744669_a_at) / Fold change /veh LINC00158 (11744669_a_at) / RFU DUSP10 (11751237_a_at) / Fold change /veh DUSP10 (11751237_a_at) / RFU ID3 (11757404_x_at) / Fold change /veh ID3 (11757404_x_at) / RFU PLEKHG5 (11737974_s_at) / Fold change /veh PLEKHG5 (11737974_s_at) / RFU LRRC4B (11730491_at) / Fold change /veh LRRC4B (11730491_at) / RFU GIMAP4 (11747438_a_at) / Fold change /veh GIMAP4 (11747438_a_at) / RFU KRT8 (11758183_x_at) / Fold change /veh KRT8 (11758183_x_at) / RFU CNN1 (11734310_a_at) / Fold change /veh CNN1 (11734310_a_at) / RFU VPS37D (11726825_at) / Fold change /veh VPS37D (11726825_at) / RFU C10orf10 (11716522_x_at) / Fold change /veh C10orf10 (11716522_x_at) / RFU KIR2DL2 /// KIR2DL4 /// KIR2DL5A /// KIR2DL5B /// KIR2DS1 /// KIR2DS2 /// KIR2DS3 /// KIR2DS4 /// KIR3DL3 /// KIR3DL3 /// KIR3DS1 (11738374_at) / Fold change /veh KIR2DL2 /// KIR2DL4 /// KIR2DL5A /// KIR2DL5B /// KIR2DS1 /// KIR2DS2 /// KIR2DS3 /// KIR2DS4 /// KIR3DL3 /// KIR3DL3 /// KIR3DS1 (11738374_at) / RFU C1QL1 (11718748_at) / Fold change /veh C1QL1 (11718748_at) / RFU TMPRSS4 (11747572_a_at) / Fold change /veh TMPRSS4 (11747572_a_at) / RFU HAMP (11756126_x_at) / Fold change /veh HAMP (11756126_x_at) / RFU RNFT2 (11725882_a_at) / Fold change /veh RNFT2 (11725882_a_at) / RFU NR4A2 (11747474_a_at) / Fold change /veh NR4A2 (11747474_a_at) / RFU ABCC12 (11746883_a_at) / Fold change /veh ABCC12 (11746883_a_at) / RFU TMEM136 (11760407_x_at) / Fold change /veh TMEM136 (11760407_x_at) / RFU CLDN22 /// WWC2 (11732394_at) / Fold change /veh CLDN22 /// WWC2 (11732394_at) / RFU HLA-DPB1 (11760878_x_at) / Fold change /veh HLA-DPB1 (11760878_x_at) / RFU SPINT1 (11716480_a_at) / Fold change /veh SPINT1 (11716480_a_at) / RFU GAP43 (11754022_s_at) / Fold change /veh GAP43 (11754022_s_at) / RFU A4GNT (11735810_at) / Fold change /veh A4GNT (11735810_at) / RFU PRB3 (11715151_x_at) / Fold change /veh PRB3 (11715151_x_at) / RFU TUBB4B (11761932_at) / Fold change /veh TUBB4B (11761932_at) / RFU CAPN14 (11732068_a_at) / Fold change /veh CAPN14 (11732068_a_at) / RFU TMCC2 (11721928_a_at) / Fold change /veh TMCC2 (11721928_a_at) / RFU IRGQ (11745062_a_at) / Fold change /veh IRGQ (11745062_a_at) / RFU FAM174B (11720279_a_at) / Fold change /veh FAM174B (11720279_a_at) / RFU TMPRSS4 (11748680_a_at) / Fold change /veh TMPRSS4 (11748680_a_at) / RFU FAM212B (11763350_a_at) / Fold change /veh FAM212B (11763350_a_at) / RFU PLEKHG5 (11743358_a_at) / Fold change /veh PLEKHG5 (11743358_a_at) / RFU ZSCAN30 (11745921_a_at) / Fold change /veh ZSCAN30 (11745921_a_at) / RFU CMKLR1 (11741424_a_at) / Fold change /veh CMKLR1 (11741424_a_at) / RFU LOC101060620 /// MAPK8IP1 (11723275_at) / Fold change /veh LOC101060620 /// MAPK8IP1 (11723275_at) / RFU SPTSSB (11747773_x_at) / Fold change /veh SPTSSB (11747773_x_at) / RFU PRSS12 (11739890_at) / Fold change /veh PRSS12 (11739890_at) / RFU BIN1 (11741810_x_at) / Fold change /veh BIN1 (11741810_x_at) / RFU WNT11 (11732464_a_at) / Fold change /veh WNT11 (11732464_a_at) / RFU C10orf10 (11716521_a_at) / Fold change /veh C10orf10 (11716521_a_at) / RFU C5orf56 (11738089_at) / Fold change /veh C5orf56 (11738089_at) / RFU CYB561 (11721691_x_at) / Fold change /veh CYB561 (11721691_x_at) / RFU ANKRD19P (11752326_a_at) / Fold change /veh ANKRD19P (11752326_a_at) / RFU OR2T12 /// OR2T33 /// OR2T8 (11738714_s_at) / Fold change /veh OR2T12 /// OR2T33 /// OR2T8 (11738714_s_at) / RFU VCAN (11748164_a_at) / Fold change /veh VCAN (11748164_a_at) / RFU JSRP1 (11732532_at) / Fold change /veh JSRP1 (11732532_at) / RFU KRTAP10-11 (11738290_x_at) / Fold change /veh KRTAP10-11 (11738290_x_at) / RFU MYO3A (11730013_a_at) / Fold change /veh MYO3A (11730013_a_at) / RFU EBF3 (11725865_a_at) / Fold change /veh EBF3 (11725865_a_at) / RFU CAMK2N1 (11719241_x_at) / Fold change /veh CAMK2N1 (11719241_x_at) / RFU C5orf56 (11738088_a_at) / Fold change /veh C5orf56 (11738088_a_at) / RFU OLFML3 (11715873_a_at) / Fold change /veh OLFML3 (11715873_a_at) / RFU LOC100653217 /// NTM (11731650_a_at) / Fold change /veh LOC100653217 /// NTM (11731650_a_at) / RFU MAPK11 (11762145_a_at) / Fold change /veh MAPK11 (11762145_a_at) / RFU FIZ1 (11724087_x_at) / Fold change /veh FIZ1 (11724087_x_at) / RFU OASL (11726364_x_at) / Fold change /veh OASL (11726364_x_at) / RFU SOX15 (11748057_x_at) / Fold change /veh SOX15 (11748057_x_at) / RFU CD79A (11719716_a_at) / Fold change /veh CD79A (11719716_a_at) / RFU HIST1H1D (11736915_at) / Fold change /veh HIST1H1D (11736915_at) / RFU CASKIN2 (11723855_a_at) / Fold change /veh CASKIN2 (11723855_a_at) / RFU LOC730098 (11760151_x_at) / Fold change /veh LOC730098 (11760151_x_at) / RFU OR4N2 (11742367_at) / Fold change /veh OR4N2 (11742367_at) / RFU PRRT2 (11749266_a_at) / Fold change /veh PRRT2 (11749266_a_at) / RFU SNX32 (11753110_a_at) / Fold change /veh SNX32 (11753110_a_at) / RFU CDHR5 (11726645_a_at) / Fold change /veh CDHR5 (11726645_a_at) / RFU RCAN1 (11760418_a_at) / Fold change /veh RCAN1 (11760418_a_at) / RFU FAM167A (11723789_a_at) / Fold change /veh FAM167A (11723789_a_at) / RFU FAM26E (11764081_at) / Fold change /veh FAM26E (11764081_at) / RFU ISYNA1 (11749810_s_at) / Fold change /veh ISYNA1 (11749810_s_at) / RFU ACY1 (11761880_at) / Fold change /veh ACY1 (11761880_at) / RFU 11764098_at / Fold change /veh 11764098_at / RFU SAMD14 (11745864_x_at) / Fold change /veh SAMD14 (11745864_x_at) / RFU NPB (11741838_a_at) / Fold change /veh NPB (11741838_a_at) / RFU TMPRSS6 (11731388_a_at) / Fold change /veh TMPRSS6 (11731388_a_at) / RFU KRTAP10-2 (11738614_at) / Fold change /veh KRTAP10-2 (11738614_at) / RFU ARHGAP8 /// PRR5-ARHGAP8 (11727945_x_at) / Fold change /veh ARHGAP8 /// PRR5-ARHGAP8 (11727945_x_at) / RFU KRTAP5-7 /// NADSYN1 (11734609_at) / Fold change /veh KRTAP5-7 /// NADSYN1 (11734609_at) / RFU RASL12 (11751679_a_at) / Fold change /veh RASL12 (11751679_a_at) / RFU CDKN2B (11736163_a_at) / Fold change /veh CDKN2B (11736163_a_at) / RFU PRF1 (11729649_at) / Fold change /veh PRF1 (11729649_at) / RFU, ZNF638 /// ZNF638-IT1 / Fold change vs veh, ZNF638 /// ZNF638-IT1 / RFU, PANK3 / Fold change vs veh, PANK3 / RFU, SH3YL1 / Fold change vs veh, SH3YL1 / RFU, ZEB2 / Fold change vs veh, ZEB2 / RFU, NRIP1 / Fold change vs veh, NRIP1 / RFU, PTTG1IP / Fold change vs veh, PTTG1IP / RFU, CAPN2 / Fold change vs veh, CAPN2 / RFU, MED14 / Fold change vs veh, MED14 / RFU, SNORA58 / Fold change vs veh, SNORA58 / RFU, C1orf63 / Fold change vs veh, C1orf63 / RFU, LRRFIP1 / Fold change vs veh, LRRFIP1 / RFU, NDUFAF7 / Fold change vs veh, NDUFAF7 / RFU, SLC12A2 / Fold change vs veh, SLC12A2 / RFU, IBTK / Fold change vs veh, IBTK / RFU, ESF1 / Fold change vs veh, ESF1 / Fold change vs veh, TMEM50B / RFU, TAOK1 / Fold change vs veh, TAOK1 / RFU, ACBD3 / Fold change vs veh, ACBD3 / RFU, TMA16 / Fold change vs veh, TMA16 / RFU, RWDD3 / Fold change vs veh, RWDD3 / RFU, BCAT1 / Fold change vs veh, BCAT1 / RFU, EDEM3 / Fold change vs veh, EDEM3 / RFU, TMEM33 / Fold change vs veh, TMEM33 / RFU, WDR75 / Fold change vs veh, WDR75 / RFU, AHCTF1 / Fold change vs veh, AHCTF1 / RFU, TFRC / Fold change vs veh, TFRC / RFU, ZDHHC17 / Fold change vs veh, ZDHHC17 / RFU, NOM1 / Fold change vs veh, NOM1 / RFU, ARL8B / Fold change vs veh, ARL8B / RFU, ZBTB11 / Fold change vs veh, ZBTB11 / RFU, TAMM41 / Fold change vs veh, TAMM41 / RFU, KIAA1704 /// LOC100996395 / Fold change vs veh, KIAA1704 /// LOC100996395 / RFU, ING1 / Fold change vs veh, ING1 / RFU, TRMT61B / Fold change vs veh, TRMT61B / RFU, FUBP3 / Fold change vs veh, FUBP3 / RFU, TP53 / Fold change vs veh, TP53 / RFU, TNKS2 / Fold change vs veh, TNKS2 / RFU, ZFP14 / Fold change vs veh, ZFP14 / RFU, ACTR2 / Fold change vs veh, ACTR2 / RFU, PPP3R1 / Fold change vs veh, PPP3R1 / RFU, PIK3R1 / Fold change vs veh, PIK3R1 / RFU, HNRNPA1 / Fold change vs veh, HNRNPA1 / RFU, RNF170 / Fold change vs veh, RNF170 / RFU, ZNF28 / Fold change vs veh, ZNF28 / RFU, RNGTT / Fold change vs veh, RNGTT / RFU, OGT / Fold change vs veh, OGT / RFU, BRD1 / Fold change vs veh, BRD1 / RFU, MARS / Fold change vs veh, MARS / RFU, ZNF655 / Fold change vs veh, ZNF655 / RFU, FAHD1 / Fold change vs veh, FAHD1 / RFU, BDP1 / Fold change vs veh, BDP1 / RFU, LRRCC1 / Fold change vs veh, LRRCC1 / RFU, ARID1A / Fold change vs veh, ARID1A / RFU, ZNF146 / Fold change vs veh, ZNF146 / RFU, ZNF330 / Fold change vs veh, ZNF330 / RFU, GPN3 / Fold change vs veh, GPN3 / RFU, C9orf123 / Fold change vs veh, C9orf123 / RFU, N4BP2L2 / Fold change vs veh, N4BP2L2 / RFU, ARFIP1 / Fold change vs veh, ARFIP1 / RFU, FAM179B / Fold change vs veh, FAM179B / RFU, BCL10 / Fold change vs veh, BCL10 / RFU, UHRF1BP1L / Fold change vs veh, UHRF1BP1L / RFU, BET1 / Fold change vs veh, BET1 / RFU, CNOT2 / Fold change vs veh, CNOT2 / RFU, ZNF268 / Fold change vs veh, ZNF268 / Fold change vs veh, ZNF507 / RFU, DGCR2 / Fold change vs veh, DGCR2 / RFU, WDSUB1 / Fold change vs veh, WDSUB1 / Fold change vs veh, HSP90B1 /// MIR3652 / RFU, ADSS / Fold change vs veh, ADSS / RFU, GK / Fold change vs veh, GK / RFU, ZNF148 / Fold change vs veh, ZNF148 / RFU, TAF9 / Fold change vs veh, TAF9 / RFU, SLC1A5 / Fold change vs veh, SLC1A5 / RFU, SLMO2 / Fold change vs veh, SLMO2 / RFU, ABCC4 / Fold change vs veh, ABCC4 / RFU, LOC101060439 /// RAP1B / Fold change vs veh, LOC101060439 /// RAP1B / RFU, RFX7 / Fold change vs veh, RFX7 / RFU, GTPBP10 / Fold change vs veh, GTPBP10 / RFU, CNEP1R1 / Fold change vs veh, CNEP1R1 / RFU, BIVM-ERCC5 /// ERCC5 / Fold change vs veh, BIVM-ERCC5 /// ERCC5 / RFU, ILF3 / Fold change vs veh, ILF3 / RFU 11762660_at / Fold change /veh 11762660_at / RFU VCAN (11757783_s_at) / Fold change /veh VCAN (11757783_s_at) / RFU DDX43 (11728927_at) / Fold change /veh DDX43 (11728927_at) / RFU KRT8 (11758188_x_at) / Fold change /veh KRT8 (11758188_x_at) / RFU NKD1 (11759106_at) / Fold change /veh NKD1 (11759106_at) / RFU SRD5A1 (11742802_a_at) / Fold change /veh SRD5A1 (11742802_a_at) / RFU TPSAB1 /// TPSB2 (11721975_s_at) / Fold change /veh TPSAB1 /// TPSB2 (11721975_s_at) / RFU GSTM3 (11746129_a_at) / Fold change /veh GSTM3 (11746129_a_at) / RFU IL23R (11737362_x_at) / Fold change /veh IL23R (11737362_x_at) / RFU TMEM51 (11727254_a_at) / Fold change /veh TMEM51 (11727254_a_at) / RFU PIWIL2 (11732686_x_at) / Fold change /veh PIWIL2 (11732686_x_at) / RFU ORM1 (11744905_x_at) / Fold change /veh ORM1 (11744905_x_at) / RFU CCDC152 (11743942_at) / Fold change /veh CCDC152 (11743942_at) / RFU ECM1 (11717891_a_at) / Fold change /veh ECM1 (11717891_a_at) / RFU IL23R (11748794_a_at) / Fold change /veh IL23R (11748794_a_at) / RFU TNFAIP8L3 (11732012_x_at) / Fold change /veh TNFAIP8L3 (11732012_x_at) / RFU MBOAT4 (11741988_at) / Fold change /veh MBOAT4 (11741988_at) / RFU 11764193_at / Fold change /veh 11764193_at / RFU TMEM53 (11763286_at) / Fold change /veh TMEM53 (11763286_at) / RFU MAGEB2 (11727129_at) / Fold change /veh MAGEB2 (11727129_at) / RFU TMEM200A (11744735_a_at) / Fold change /veh TMEM200A (11744735_a_at) / RFU CCDC152 (11751479_a_at) / Fold change /veh CCDC152 (11751479_a_at) / RFU FAM211A (11726209_a_at) / Fold change /veh FAM211A (11726209_a_at) / RFU RGS16 (11746705_a_at) / Fold change /veh RGS16 (11746705_a_at) / RFU VCAN (11755009_s_at) / Fold change /veh VCAN (11755009_s_at) / RFU RHOB (11743442_s_at) / Fold change /veh RHOB (11743442_s_at) / RFU RGS16 (11720943_a_at) / Fold change /veh RGS16 (11720943_a_at) / RFU RGS16 (11720944_at) / Fold change /veh RGS16 (11720944_at) / RFU, VPS4B / Fold change vs veh, VPS4B / RFU, CREB1 / Fold change vs veh, CREB1 / RFU, DNAJC13 / Fold change vs veh, DNAJC13 / RFU, GNAQ / Fold change vs veh, GNAQ / RFU, CDK5R1 / Fold change vs veh, CDK5R1 / RFU, ZRANB3 / Fold change vs veh, ZRANB3 / RFU, CUL4A / Fold change vs veh, CUL4A / RFU, CCNY / Fold change vs veh, CCNY / RFU, UFL1 / Fold change vs veh, UFL1 / RFU, COG3 / Fold change vs veh, COG3 / RFU, DIAPH2 / Fold change vs veh, DIAPH2 / RFU, SKA2 / Fold change vs veh, SKA2 / RFU, AFF3 / Fold change vs veh, AFF3 / RFU, LMF1 / Fold change vs veh, LMF1 / RFU, IPO11 / Fold change vs veh, IPO11 / RFU, DFFB / Fold change vs veh, DFFB / RFU, FOXP1 / Fold change vs veh, FOXP1 / RFU, CARD8 / Fold change vs veh, CARD8 / RFU, STRN3 / Fold change vs veh, STRN3 / RFU, ADK / Fold change vs veh, ADK / RFU, RASSF2 / Fold change vs veh, RASSF2 / RFU, WIPF1 / Fold change vs veh, WIPF1 / RFU, LARP1B / Fold change vs veh, LARP1B / RFU, RASA1 / Fold change vs veh, RASA1 / RFU, RB1 / Fold change vs veh, RB1 / RFU, PPFIA1 / Fold change vs veh, PPFIA1 / RFU, MAT2A / Fold change vs veh, MAT2A / RFU, CCT5 / Fold change vs veh, CCT5 / RFU, WDR92 / Fold change vs veh, WDR92 / RFU, CUX1 / Fold change vs veh, CUX1 / RFU, TTC7A / Fold change vs veh, TTC7A / RFU, TMEM135 / Fold change vs veh, TMEM135 / RFU, DEPTOR / Fold change vs veh, DEPTOR / RFU, CPM / Fold change vs veh, CPM / RFU, DNAJB6 / Fold change vs veh, DNAJB6 / RFU, CACNA2D3 / Fold change vs veh, CACNA2D3 / RFU, DTX4 / Fold change vs veh, DTX4 / RFU, TFCP2 / Fold change vs veh, TFCP2 / RFU, GMCL1 /// GMCL1P1 / Fold change vs veh, GMCL1 /// GMCL1P1 / RFU, AEBP2 / Fold change vs veh, AEBP2 / RFU, SNHG1 /// SNORD22 /// SNORD25 /// SNORD26 /// SNORD27 /// SNORD28 /// SNORD29 /// SNORD31 / Fold change vs veh, SNHG1 /// SNORD22 /// SNORD25 /// SNORD26 /// SNORD27 /// SNORD28 /// SNORD29 /// SNORD31 / Fold change (Aza/veh), C12orf56 (ProbeSet 11735607_a_at) / Fold change (ACY-1035/veh), C12orf56 (ProbeSet 11735607_a_at) / Fold change (Aza/veh), FGFR1OP (ProbeSet 11751329_s_at) / Fold change (ACY-1035/veh), FGFR1OP (ProbeSet 11751329_s_at) / Fold change (Aza/veh), VPS36 (ProbeSet 11739960_a_at) / Fold change (ACY-1035/veh), VPS36 (ProbeSet 11739960_a_at) / RFU SYPL1 (11715823_x_at) / Fold change /veh SYPL1 (11715823_x_at) / RFU IGFBP7 (11715501_s_at) / Fold change /veh IGFBP7 (11715501_s_at) / RFU REEP3 (11722064_at) / Fold change /veh REEP3 (11722064_at) / RFU IGLL1 (11728026_x_at) / Fold change /veh IGLL1 (11728026_x_at): dose or concentration left out as unconfirmed
# Details: MV-4-11 cells, 48 hours
structure (smiles),measurement,value
Nc1ccc(-c2cccs2)cc1NC(=O)c1ccc2c(c1)cc(C1CC1)n2CCN1CCOCC1 [ACY-1035],RFU FAM167A (11723789_a_at),37.08 RFU
